Patent US6696409B1 (priority 1996, dated 2004)
Marks after values point to notes of the source that are not given here.

Experiments:
Y1 receptors = biological target: T1, Y1 receptors (Rattus norvegicus, UniProt P21555); assay: Pressor response (increase in blood pressure) in anaesthetised rats (postjunctional activity); type: in vivo
T1 construct: from tissue; host or cells: anaesthetised Wistar rat, vasculature (in vivo)
T1 sequence (P21555 1-382): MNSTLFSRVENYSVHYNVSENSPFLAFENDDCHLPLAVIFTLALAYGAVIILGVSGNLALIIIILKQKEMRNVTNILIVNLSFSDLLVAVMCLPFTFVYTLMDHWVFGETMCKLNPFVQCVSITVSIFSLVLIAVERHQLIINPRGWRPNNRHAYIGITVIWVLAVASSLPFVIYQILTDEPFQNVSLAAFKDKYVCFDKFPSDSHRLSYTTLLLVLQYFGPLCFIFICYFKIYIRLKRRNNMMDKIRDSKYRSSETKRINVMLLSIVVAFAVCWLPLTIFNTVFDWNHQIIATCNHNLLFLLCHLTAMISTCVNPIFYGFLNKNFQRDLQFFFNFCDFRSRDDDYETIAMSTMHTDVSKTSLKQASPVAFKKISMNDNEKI
Procedure: Experiments were carried out on adult rats (Wistar) of both sexes (250-350 g), anaesthetised with sodium pentobarbitone (Nembutal, Boehringer-Ingleheim; 60 mg/kg, i.p.). The trachea was cannulated and the animal artificially ventilated. The femoral vein was cannulated for administration of peptides and further doses of anaesthetic. The left femoral artery was cannulated to record arterial pressure. Both vagus nerves were cut. […] The electrocardiogram was measured using needle electrodes and monitored on one channel of an osciloscope. Pulse interval (the period between successive beats of the heart) was recorded beat-by-beat by triggering from ECG. Pulse interval and arterial pressure were recorded on the pen recorder.
Dose-response curves were constructed from group data for all rats. Because of the long time-course of action of the peptides tested, not all peptides were given to each rat.
As an indication of prejunctional activity two parameters were measured; the maximum percent inhibition of the increase in pulse interval evoked by stimulation of the vagus nerve following injection of peptide and the time to half recovery of this effect (T50). For pressor action, an indicator of postjunctional activity, two parameters were also measured; the peak pressor response following injection of peptide and the duration of the increase in blood pressure. […] Results were analysed using a one-way ANOVA.

Y2-like receptors = biological target: T2, Y2-like receptors (Rattus norvegicus, UniProt Q9ERC0); assay: Inhibition of the vagally evoked increase in pulse interval in anaesthetised rats (prejunctional activity); type: in vivo; conditions: compared with Ac[Leu28,Leu31]NPY(24-36)
T2 construct: from tissue; host or cells: anaesthetised Wistar rat, cardiac vagal nerve endings (in vivo)
T2 sequence (Q9ERC0 1-381): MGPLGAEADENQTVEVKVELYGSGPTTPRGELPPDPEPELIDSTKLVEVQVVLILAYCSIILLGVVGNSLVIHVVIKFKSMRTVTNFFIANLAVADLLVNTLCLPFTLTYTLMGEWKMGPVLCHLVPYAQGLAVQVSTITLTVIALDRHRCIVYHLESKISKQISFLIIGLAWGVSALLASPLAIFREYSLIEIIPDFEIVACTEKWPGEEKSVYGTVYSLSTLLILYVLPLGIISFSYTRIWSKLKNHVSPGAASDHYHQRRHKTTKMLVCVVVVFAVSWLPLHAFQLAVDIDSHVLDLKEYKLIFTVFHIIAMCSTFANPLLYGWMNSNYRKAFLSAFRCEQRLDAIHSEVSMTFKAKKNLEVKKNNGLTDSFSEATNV
Procedure: Experiments were carried out on adult rats (Wistar) of both sexes (250-350 g), anaesthetised with sodium pentobarbitone (Nembutal, Boehringer-Ingleheim; 60 mg/kg, i.p.). The trachea was cannulated and the animal artificially ventilated. The femoral vein was cannulated for administration of peptides and further doses of anaesthetic. The left femoral artery was cannulated to record arterial pressure. Both vagus nerves were cut. […] The frequency was chosen to increase pulse interval by approximately 100 ms, a submaximal effect on this variable. The electrocardiogram was measured using needle electrodes and monitored on one channel of an osciloscope. Pulse interval (the period between successive beats of the heart) was recorded beat-by-beat by triggering from ECG. Pulse interval and arterial pressure were recorded on the pen recorder.
Dose-response curves were constructed from group data for all rats. Because of the long time-course of action of the peptides tested, not all peptides were given to each rat. Usually however, each rat received neuropeptide Y and two other peptides.
As an indication of prejunctional activity two parameters were measured; the maximum percent inhibition of the increase in pulse interval evoked by stimulation of the vagus nerve following injection of peptide and the time to half recovery of this effect (T50). For pressor action, an indicator of postjunctional activity, two parameters were also measured; the peak pressor response following injection of peptide and the duration of the increase in blood pressure. These indices give a reliable measure of the actions of a peptide at pre- and postjunctional sites, and have been used previously in this laboratory for this purpose; Potter et al., 1989; Potter et al., 1991). Results were analysed using a one-way ANOVA.

human Y1 receptor = biological target: T3, human Y1 receptor (Homo sapiens, UniProt P25929); assay: [125I]NPY receptor binding assay on SK-N-MC cells
T3 construct: host or cells: SK-N-MC cells (thawed, needle-disrupted cells)
T3 sequence (P25929 1-384): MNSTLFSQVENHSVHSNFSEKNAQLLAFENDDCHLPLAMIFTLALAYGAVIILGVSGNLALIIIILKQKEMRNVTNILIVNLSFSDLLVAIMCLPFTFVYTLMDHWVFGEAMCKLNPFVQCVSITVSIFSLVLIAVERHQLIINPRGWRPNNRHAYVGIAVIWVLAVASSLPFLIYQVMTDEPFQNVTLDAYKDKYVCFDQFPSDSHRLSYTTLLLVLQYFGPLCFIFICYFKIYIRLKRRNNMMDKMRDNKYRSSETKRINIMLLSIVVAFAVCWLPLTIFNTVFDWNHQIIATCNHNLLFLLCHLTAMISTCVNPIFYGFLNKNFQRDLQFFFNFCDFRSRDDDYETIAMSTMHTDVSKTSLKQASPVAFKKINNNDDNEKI
Procedure: (§1) SK-N-MC cells expressing the human Y1 receptor and SMS-MSN cells expressing the human Y2 receptor were obtained from the ATCC. They were cultured in 1:1 DMEM:Ham's F12 medium (ICN) containing 10% fetal calf serum, 0.1% non-essential amino acids, 0.2 mM glutamine, and 0.056% sodium bicarbonate. Confluent cells were harvested in scraping and pellets were stored at −80° C. On the day of use cells were thawed, washed once in binding buffer salts, passed several times through a 22 ga. needle, and the protein content was assayed using bicinchoninic acid (BCA kit, Pierce).
(§2) Just before use, plates were filtered and washed twice with 50 mM Tris-HCI pH 7.4/0.1% BSA. […] Binding was terminated by filtration. Filters were washed twice by rapid filtration with […] volumes of 50 mM Tris-HCI pH 7.4/0.1% BSA at 2° C., and counted on an LKB gamma counter. Specific binding was analysed by non-linear regression using a single-site fitting function (Graphpad Prism). Non-specific binding was defined by binding in the presence of 1 μM competitor.

human Y2 receptor = biological target: T4, human Y2 receptor (Homo sapiens, UniProt P49146); assay: [125I]NPY receptor binding assay on SMS-MSN cells
T4 construct: host or cells: SMS-MSN cells (thawed, needle-disrupted cells)
T4 sequence (P49146 1-381): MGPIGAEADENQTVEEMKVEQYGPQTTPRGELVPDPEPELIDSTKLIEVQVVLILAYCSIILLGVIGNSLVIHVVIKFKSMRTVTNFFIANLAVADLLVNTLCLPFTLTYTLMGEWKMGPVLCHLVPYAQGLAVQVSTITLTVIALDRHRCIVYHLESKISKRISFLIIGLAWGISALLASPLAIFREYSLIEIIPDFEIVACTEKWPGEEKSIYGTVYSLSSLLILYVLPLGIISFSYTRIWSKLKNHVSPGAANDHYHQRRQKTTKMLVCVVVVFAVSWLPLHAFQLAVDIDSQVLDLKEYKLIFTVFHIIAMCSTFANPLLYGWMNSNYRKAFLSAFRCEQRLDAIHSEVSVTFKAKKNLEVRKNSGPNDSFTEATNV
Procedure: as §1, §2

[1] = tested on: Y2-like receptors mediating inhibition of transmitter release from renal nerves; assay: Increase of renal vascular resistance elicited by renal sympathetic nerve stimulation; type: in vivo, dog; conditions: 40 nmol dose; FIG. 1
Procedure: Experiments were carried out in six, adult, mongrel dogs of both sexes weighing between 18 and 26 kg. The dogs were anaesthetised with a bolus injection of sodium pentobarbitone (36 mg/kg intravenous; Nembutal, Boehringer Ingelheim) and then maintained on an infusion (2-3 mg/kg/hr). The animal was artificially ventilated, maintained at constant temperature and blood pressure and heart rate were monitored continuously.
The left kidney was exposed retroperitoneally and renal arterial blood flow was monitored continuously (Pernow & Lundberg, 1989a), using a transonic flow probe (Transonic System Inc., N.Y.). Postganglionic nerves to the kidney were isolated, cut and placed over bipolar, platinum electrodes for stimulation (1-10 Hz, 5-10 V, 1-5 msec).
The renal nerve was stimulated over a range of frequencies (1-10 Hz) for 30 secs and a frequency-response curve constructed. The responses were measured at the peak change in flow. […] Responses were reported as change in vascular resistance.

[2] = biological target: T5, neuropeptide Y Y1 receptor type (Homo sapiens, UniProt P25929); conditions: SK-N-MC cells; cited from earlier work
T5 construct: host or cells: SK-N-MC human cells
T5 sequence (P25929 1-384): T3 sequence (P25929 1-384)

[3] = biological target: T6, neuropeptide Y Y2 receptor subtype (Homo sapiens, UniProt P49146); conditions: SMS-KAN cells; cited from earlier work
T6 construct: host or cells: SMS-KAN human neuroblastoma cells
T6 sequence (P49146 1-381): T4 sequence (P49146 1-381)

[4] = biological target: T7, human neuropeptide Y Y1 receptor (Homo sapiens, UniProt P25929); conditions: fibroblast cells; cited from earlier work
T7 sequence (P25929 1-384): T3 sequence (P25929 1-384)

[5] = anaesthetised rats, †: No response to 10 nmole dose

Row | Substance | Increase in BP (rel to NPY) (Y1 receptors; [5]) | further results
1 | Ac-ARAALNAATRQRY-NH2 [Ac[A24,26,27,30,31,L28]NPY24-36] | 0† | Inhibition of the effect of vagal stimulation on heart rate, in words (Y2-like receptors): enhanced in vivo activity at Y2 receptors; IC50 (human Y1 receptor): > 1 µM
2 | Ac-ARHALNLLTRQRY-NH2 [Ac[A24,A27,L28,L31]NPY24-36] | 0† | Affinity for NPY Y2 receptors, in words (human Y2 receptor): high affinity for NPY Y2 receptors; Inhibition of the increase of renal vascular resistance elicited by renal nerve stimulation [1]: almost completely inhibited the effect of nerve stimulation; Direct effect on the circulation (Y1 receptors; 40 nmol dose): no direct effect on the circulation; Inhibition of the effect of vagal stimulation on heart rate, in words (Y2-like receptors): enhanced in vivo activity at Y2 receptors
3 | Ac[A26,27,L28,31]NPY24-36 (Ac-LRAALNLLTRQRY-NH2; ends and bridges not checked) |  | Inhibition of the effect of vagal stimulation on heart rate, in words (Y2-like receptors): enhanced in vivo activity at Y2 receptors
4 | Ac-LRAYLNLLTRQRY-NH2 [Ac[A26,L28,L31]NPY24-36] | 0† | 
5 | Ac-LRHYLALLTRQRY-NH2 [Ac[L28,A29,L31]NPY24-36] | 0† | 
6 | Ac-LRHYANLLTRQRY-NH2 [Ac[A28,L31]NPY24-36] | 0† | 
7 | Ac-ARHYLNLLTRQRY-NH2 [Ac[A24,L28,L31]NPY24-36] | 0† | IC50 (human Y2 receptor): 0.0193 µM
8 | Ac-LRHYLNLLARQRY-NH2 [Ac[L28,L31,A32]NPY24-36] | 0† | 
9 | Ac-LRHYLNLATRQRY-NH2 [Ac[L28,A31]NPY24-36] | 0† | 
10 | AcNPY24-36 [reference compound] | 0† | 
11 | Ac-LRHALNLLTRQRY-NH2 [Ac[A27,L28,L31]NPY24-36] | 0† | 
12 | Ac-LAHYLNLLTRQRY-NH2 [Ac[A25,L28,L31]NPY24-36] | 0† | 
13 | Ac-LAHYRNLLTRQRY-NH2 [Ac[A25,R28,L31]NPY24-36] | 0† | 
14 | Ac-LRHYLNALTRQRY-NH2 [Ac[L28,A30,L31]NPY24-36] | 0† | 
15 | Ac[L28,I30]NPY24-36 (Ac-LRHYLNIITRQRY-NH2; ends and bridges not checked; UniProt P01303 52-64, looked up, variant I28L L30I) | 0† | 
16 | Ac-LRHYLNLLTRQRY-NH2 [Ac[L28,L31]NPY24-36] [listing 1 of 2 here] |  | Affinity for the neuropeptide Y Y1 receptor type, in words [2]: no affinity; Affinity for the neuropeptide Y Y2 receptor subtype, in words [3]: significant affinity; Stimulation of the Y1 receptor to induce an increase in cytosolic calcium [4]: did not stimulate; Increase in BP (rel to NPY) (Y1 receptors; rat, in vivo): 0†
17 | Ac-LRHYLNLLTRQRY-NH2 [Ac[L28,L31]NPY24-36] [listing 2 of 2 here] |  | IC50 (human Y1 receptor): > 0.1 µM
